Assay results from ChEMBL document CHEMBL1201862, “PubChem BioAssay data set” (2004).
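Each compound was tested at five concentrations against cells in 96-well plates for 48 hours. Abbreviation: GI50, concentration required for 50% inhibition of growth.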 Activity calls are given as the source filed them. Rule as the data show it: active = GI50 up to about 1.1 µM and inactive = higher.

Key:
Test in all cases: inhibition of tumour cell growth, NCI panel, 48 h
786-0 = test system: 786-0
A498 = test system: A498
A549 = test system: A549
ACHN = test system: ACHN
CAKI-1 = test system: CAKI-1
CCRF-CEM = test system: CCRF-CEM
COLO 205 = test system: COLO 205
DU-145 = test system: DU-145
EKVX = test system: EKVX
HCC 2998 = test system: HCC 2998
HCT-15 = test system: HCT-15
HL-60 = test system: HL-60
HOP-62 = test system: HOP-62
HOP-92 = test system: HOP-92
HT-29 = test system: HT-29
Hs-578T = test system: Hs-578T
IGROV-1 = test system: IGROV-1
K562 = test system: K562
KM12 = test system: KM12
LOX IMVI = test system: LOX IMVI
M14 = test system: M14
MCF7 = test system: MCF7
MDA-MB-231 = test system: MDA-MB-231
MDA-MB-435 = test system: MDA-MB-435
MDA-N = test system: MDA-N
MOLT-4 = test system: MOLT-4
Malme-3M = test system: Malme-3M
NCI-H23 = test system: NCI-H23
NCI-H460 = test system: NCI-H460
NCI-H522 = test system: NCI-H522
NCI/ADR-RES = test system: NCI/ADR-RES
OVCAR-3 = test system: OVCAR-3
OVCAR-4 = test system: OVCAR-4
OVCAR-5 = test system: OVCAR-5
OVCAR-8 = test system: OVCAR-8
PC-3 = test system: PC-3
RPMI-8226 = test system: RPMI-8226
RXF 393 = test system: RXF 393
SF-268 = test system: SF-268
SF-295 = test system: SF-295
SF-539 = test system: SF-539
SK-MEL-28 = test system: SK-MEL-28
SK-MEL-2 = test system: SK-MEL-2
SK-MEL-5 = test system: SK-MEL-5
SK-OV-3 = test system: SK-OV-3
SN12C = test system: SN12C
SNB-19 = test system: SNB-19
SNB-75 = test system: SNB-75
SR = test system: SR
SW-620 = test system: SW-620
T47D = test system: T47D
TK-10 = test system: TK-10
U-251 = test system: U-251
UACC-257 = test system: UACC-257
UACC-62 = test system: UACC-62
UO-31 = test system: UO-31
HCT-116 = test system: HCT-116
NCI-H226 = test system: NCI-H226

Measured: GI50

C[C@]1(O)O[C@@H]2OCC[C@@H]2C2=C1C(=O)c1ccccc1C2=O
19 µM: HCT-15
inactive: 786-0 14.4 µM | A498 14.1 µM | A549 17.9 µM | ACHN 17.7 µM | CAKI-1 20.1 µM | CCRF-CEM 15.4 µM | COLO 205 24.9 µM | DU-145 16.7 µM | EKVX 20 µM | HCC 2998 17.3 µM | HL-60 12.3 µM | HOP-62 12.7 µM | HOP-92 12.8 µM | HT-29 29.9 µM | Hs-578T 30.3 µM | IGROV-1 14.2 µM | K562 15.7 µM | KM12 14.8 µM | LOX IMVI 11.4 µM | M14 11.3 µM | MCF7 6.46 µM | MDA-MB-231 21.2 µM | MDA-MB-435 6.56 µM | MDA-N 6.15 µM | MOLT-4 5.04 µM | Malme-3M 15.9 µM | NCI-H23 14.7 µM | NCI-H460 16 µM | NCI-H522 16.6 µM | NCI/ADR-RES 19.7 µM | OVCAR-3 9.66 µM | OVCAR-4 12.5 µM | OVCAR-5 17.3 µM | OVCAR-8 15.3 µM | PC-3 22.1 µM | RPMI-8226 3.62 µM | RXF 393 12.7 µM | SF-268 12.8 µM | SF-295 18.7 µM | SF-539 17.3 µM | SK-MEL-28 29.4 µM | SK-MEL-2 17.4 µM | SK-MEL-5 12.4 µM | SK-OV-3 21.9 µM | SN12C 23 µM | SNB-19 18 µM | SNB-75 29.6 µM | SR 10.7 µM | SW-620 18.4 µM | T47D 18.3 µM | TK-10 20.4 µM | U-251 15.2 µM | UACC-257 17.1 µM | UACC-62 19.2 µM | UO-31 17.9 µM

C=C(C)CCC1CCCCC(CN(C)C)C1=O (configuration not stated)
> 100 µM: HCT-15
inactive: 786-0 > 100 µM | A498 > 100 µM | A549 > 100 µM | ACHN > 100 µM | CAKI-1 > 100 µM | CCRF-CEM > 100 µM | COLO 205 > 100 µM | DU-145 > 100 µM | EKVX > 100 µM | HCT-116 > 100 µM | HL-60 > 100 µM | HOP-62 > 100 µM | HOP-92 > 100 µM | HT-29 > 100 µM | Hs-578T > 100 µM | IGROV-1 > 100 µM | K562 > 100 µM | KM12 > 100 µM | LOX IMVI > 100 µM | M14 > 100 µM | MCF7 75 µM | MDA-MB-231 > 100 µM | MDA-MB-435 > 100 µM | MDA-N > 100 µM | MOLT-4 31.3 µM | NCI-H226 > 100 µM | NCI-H23 > 100 µM | NCI-H460 > 100 µM | NCI-H522 10.7 µM | NCI/ADR-RES > 100 µM | OVCAR-3 > 100 µM | OVCAR-4 > 100 µM | OVCAR-5 > 100 µM | OVCAR-8 > 100 µM | PC-3 > 100 µM | RPMI-8226 > 100 µM | SF-268 > 100 µM | SF-295 > 100 µM | SF-539 > 100 µM | SK-MEL-28 > 100 µM | SK-MEL-2 > 100 µM | SK-MEL-5 > 100 µM | SK-OV-3 > 100 µM | SN12C > 100 µM | SNB-19 > 100 µM | SNB-75 > 100 µM | SR > 100 µM | SW-620 > 100 µM | T47D > 100 µM | TK-10 > 100 µM | U-251 > 100 µM | UACC-257 > 100 µM | UACC-62 > 100 µM | UO-31 > 100 µM

Cc1cc(=O)oc2c(CNC(C(=O)O)C(C)O)c(O)ccc12 (configuration not stated)
inactive: 786-0 > 100 µM | A549 > 100 µM | ACHN > 100 µM | CAKI-1 > 100 µM | CCRF-CEM > 100 µM | COLO 205 > 100 µM | DU-145 > 100 µM | EKVX > 100 µM | HCT-116 > 100 µM | HL-60 > 100 µM | HOP-62 > 100 µM | HOP-92 > 100 µM | HT-29 > 100 µM | Hs-578T 77.4 µM | IGROV-1 > 100 µM | K562 > 100 µM | KM12 > 100 µM | LOX IMVI > 100 µM | M14 > 100 µM | MCF7 > 100 µM | MDA-MB-231 > 100 µM | MDA-MB-435 > 100 µM | MDA-N > 100 µM | MOLT-4 > 100 µM | Malme-3M 24.8 µM | NCI-H226 > 100 µM | NCI-H23 > 100 µM | NCI-H460 > 100 µM | NCI-H522 > 100 µM | NCI/ADR-RES > 100 µM | OVCAR-3 > 100 µM | OVCAR-4 > 100 µM | OVCAR-5 > 100 µM | OVCAR-8 > 100 µM | PC-3 > 100 µM | RPMI-8226 > 100 µM | RXF 393 > 100 µM | SF-268 > 100 µM | SF-295 > 100 µM | SF-539 > 100 µM | SK-MEL-28 > 100 µM | SK-MEL-2 > 100 µM | SK-MEL-5 > 100 µM | SK-OV-3 > 100 µM | SN12C > 100 µM | SNB-19 > 100 µM | SNB-75 8.89 µM | SR > 100 µM | SW-620 > 100 µM | T47D > 100 µM | TK-10 > 100 µM | U-251 > 100 µM | UACC-257 > 100 µM | UACC-62 > 100 µM | UO-31 > 100 µM
> 100 µM: HCT-15
